Here are results for 30 molecules from patent US6958352B2, “Compounds for inhibiting insulin secretion and methods related thereto” (SmithKline Beecham Corporation, priority 2002, dated 2005).

For the test, the target named is T1, mitochondrial calcium/sodium antiporter (Rattus norvegicus, UniProt Q6AXS0).
T1 sequence (Q6AXS0 1-585): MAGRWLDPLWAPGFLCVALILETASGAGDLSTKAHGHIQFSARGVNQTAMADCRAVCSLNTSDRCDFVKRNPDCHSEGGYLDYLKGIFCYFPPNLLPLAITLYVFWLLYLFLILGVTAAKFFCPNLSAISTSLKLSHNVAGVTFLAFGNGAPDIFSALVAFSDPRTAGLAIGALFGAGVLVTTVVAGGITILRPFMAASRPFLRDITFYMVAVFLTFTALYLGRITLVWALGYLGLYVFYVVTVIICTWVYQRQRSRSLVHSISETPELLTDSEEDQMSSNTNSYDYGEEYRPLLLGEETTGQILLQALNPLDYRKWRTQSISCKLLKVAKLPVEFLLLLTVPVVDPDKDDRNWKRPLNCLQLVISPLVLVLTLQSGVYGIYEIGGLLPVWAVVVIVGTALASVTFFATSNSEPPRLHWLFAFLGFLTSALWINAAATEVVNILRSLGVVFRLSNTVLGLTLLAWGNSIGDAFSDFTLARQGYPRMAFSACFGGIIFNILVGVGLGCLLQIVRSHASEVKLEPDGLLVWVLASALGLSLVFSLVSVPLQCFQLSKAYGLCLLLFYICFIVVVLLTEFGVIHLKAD
Kind of test: Inhibition of mitochondrial calcium/sodium antiporter activity (NaCl-induced mitochondrial calcium efflux, calcium green 5N fluorescence). It is filed as cell-based. Conditions: digitonin-permeabilized INS-1 cells, 20 mM NaCl. On the procedure: INS-1 rat insulinoma cells (see Example 16) were harvested by trypsinization, washed and resuspended at 10×10^6 cells/ml in assay buffer (250 mM sucrose, 10 mM HEPES, 2.5 mM K2HPO4, 5 mM succinate, pH 7.4) containing 0.007% digitonin, 60 μM CaCl2 and 0.05 μM calcium green 5N (Molecular Probes, Inc., Eugene, Oreg.). After a five-minute calcium loading incubation, ruthenium red (1 μM; Sigma, St. Louis, Mo.) was added to block further calcium uptake by mitochondria. Cell suspensions were dispensed into 96-well plates (100 μl per well, 1×10^6 cells per well) and candidate agents (i.e., candidate mitochondrial calcium/sodium antiporter inhibitors) were added to some sets of triplicate wells at concentrations of 1, 10 or 100 μM, while other sets of wells provided appropriate control conditions (e.g., buffer and vehicle controls). Baseline fluorescence measurements were made using a multiwell plate fluorimeter (F-MAX™, Molecular Devices Corp., Sunnyvale, Calif.; or PolarStar™, BMG Labtechnologies, Inc., Durham, N.C.) according to the manufacturer's instructions. Calcium efflux from mitochondria was then induced by adding NaCl to all wells to achieve a final concentration of 20 mM, and the rate of change in fluorescence in each well was monitored […] for two minutes and quantified using software included with the plate reader.

[1] abbreviates: Table 2, preferred compounds, read-out: IC50 ≦ 10 μM.
Where [2] appears, read: Table 3, more preferred compounds, read-out: IC50 ≦ 1 μM.

Read-outs that look alike come from different tables or passages of the source.

By IC50 is commonly meant the concentration that inhibits the measured activity by half. Take `COC(=O)CSC(c1ccccc1C)c1cc(Cl)ccc1N` (stereo not drawn) [Compound 11aa]: the IC50 is at most 10 µM under setting [1] and at most 1 µM under setting [2].

In the case of `COC(=O)CSC(c1cc(Cl)ccc1N)C1CCCCC1` (stereo not drawn) [Compound 11ak], the IC50 under setting [2] is at most 1 µM.

`COC(=O)CSC(CC(C)C)c1cc(Cl)ccc1N` (stereo not drawn) [Compound 11am]: under setting [1], the IC50 is at most 10 µM.

For the molecule `COC(=O)CSC(CCCOCc1ccccc1)c1cc(Cl)ccc1N` (stereo not drawn) [Compound 11an], the half-maximal inhibitory concentration (IC50) under setting [1] was at most 10 µM.

With `COC(=O)CSC(c1cc(Cl)ccc1NC(=O)C(F)(F)F)c1c(C)cccc1C` (stereo not drawn) [Compound 11ba], the half-maximal inhibitory concentration (IC50) by setting is: under setting [1], at most 10 µM; under setting [2], at most 1 µM.

For the molecule `COC(=O)CSC(c1cc(Cl)ccc1N)c1sccc1C` (stereo not drawn) [Compound 11c], the IC50 under setting [1] is at most 10 µM.

In the case of `COC(=O)CSC(c1cc(C)cc(C)c1)c1cc(Cl)ccc1N` (stereo not drawn) [Compound 11d], the 50% inhibitory concentration (IC50) is, setting by setting: under setting [1], at most 10 µM; under setting [2], at most 1 µM.

In the case of `COC(=O)CSC(c1nc2ccccc2s1)c1cc(Cl)ccc1N` (stereo not drawn) [Compound 11f], under setting [1], the IC50 is at most 10 µM.

For `COC(=O)CSC(c1cc(Cl)ccc1N)c1cccn1C` (stereo not drawn) [Compound 11h], the half-inhibitory concentration (IC50) by setting is: under setting [1], at most 10 µM; under setting [2], at most 1 µM.

On to `COC(=O)CSC(c1cccc(C)c1)c1cc(Cl)ccc1N` (stereo not drawn) [Compound 11i], for which the 50% inhibitory concentration (IC50) under setting [1] was at most 10 µM.

`COC(=O)CSC(c1cc(Cl)ccc1N)c1cccc(C)c1C` (stereo not drawn) [Compound 11k]: the half-inhibitory concentration (IC50) under setting [1] was at most 10 µM.

For `COC(=O)CSC(c1ccc(C)c(C)c1)c1cc(Cl)ccc1N` (stereo not drawn) [Compound 11l], the IC50 under setting [1] was at most 10 µM.

For the molecule `COC(=O)CSC(c1cc(C)ccc1C)c1cc(Cl)ccc1N` (stereo not drawn) [Compound 11m], the half-inhibitory concentration (IC50) under setting [1] was at most 10 µM.

On to `COC(=O)CSC(c1ccccc1N)c1ccccc1Cl` (stereo not drawn) [Compound 11r], for which the IC50 under setting [1] is at most 10 µM.

Regarding `COC(=O)CSC(c1cc(Cl)ccc1N)c1ccccc1Cl` (stereo not drawn) [Compound 11s], the half-maximal inhibitory concentration (IC50) by setting is: under setting [1], at most 10 µM; under setting [2], at most 1 µM.

On to `COC(=O)CSC(c1ccccc1)c1cc([N+](=O)[O-])ccc1N` (stereo not drawn) [Compound 11t], for which, under setting [1], the IC50 was at most 10 µM.

In the case of `COC(=O)CSC(c1nccs1)c1cc(Cl)ccc1N` (stereo not drawn) [Compound 11u], the 50% inhibitory concentration (IC50) under setting [1] is at most 10 µM.

On to `COC(=O)CSC(c1ccc(C)cc1C)c1cc(Cl)ccc1N` (stereo not drawn) [Compound 11w], for which, under setting [1], the IC50 was at most 10 µM.

Take `COC(=O)CSC(c1ccccc1)c1cc(Cl)ccc1N` (stereo not drawn) [Compound 11x]: the IC50 under setting [1] is at most 10 µM.

In the case of `CNC(=O)CSC(c1cc(Cl)ccc1N)c1ccccc1Cl` (stereo not drawn) [Compound 13a], the IC50 under setting [1] is at most 10 µM.

Regarding `O=C(CSC(c1cc(Cl)ccc1O)c1ccccc1Cl)N1CCCCC1` (stereo not drawn) [Compound 13ag], the IC50 under setting [1] was at most 10 µM.

As for `O=C(CSC(c1ccccc1)c1cc(Cl)ccc1O)N1CCCCC1` (stereo not drawn) [Compound 13ai], the half-maximal inhibitory concentration (IC50) under setting [1] is at most 10 µM.

For `CN(C)C(=O)CSC(c1cc(Cl)ccc1N)c1ccccc1Cl` (stereo not drawn) [Compound 13b], the IC50 is, setting by setting: under setting [1], at most 10 µM; under setting [2], at most 1 µM.

In the case of `Nc1ccc(Cl)cc1C(SCC(=O)NCCc1ccccc1)c1ccccc1Cl` (stereo not drawn) [Compound 13c], the concentration for half-maximal inhibition (IC50) is at most 10 µM under setting [1] and at most 1 µM under setting [2].

On to `Nc1ccc(Cl)cc1C(SCC(=O)N1CCCCC1)c1ccccc1Cl` (stereo not drawn) [Compound 13d], for which the half-maximal inhibitory concentration (IC50) is at most 10 µM under setting [1] and at most 1 µM under setting [2].

Consider `Nc1ccc(Cl)cc1C(SCC(=O)NCCO)c1ccccc1Cl` (stereo not drawn) [Compound 13e], for which the 50% inhibitory concentration (IC50) under setting [1] was at most 10 µM.

For `Nc1ccc(Cl)cc1C(SCC(=O)NCc1ccccc1)c1ccccc1Cl` (stereo not drawn) [Compound 13f], the IC50 reads like this: under setting [1], at most 10 µM; under setting [2], at most 1 µM.

Consider `CC(=O)NCCNC(=O)CSC(c1cc(Cl)ccc1N)c1ccccc1Cl` (stereo not drawn) [Compound 13g], for which the IC50 is, setting by setting: under setting [1], at most 10 µM; under setting [2], at most 1 µM.

Turning to `Nc1ccc(Cl)cc1C(SCC(=O)NC1CCCCC1)c1ccccc1Cl` (stereo not drawn) [Compound 13h], the 50% inhibitory concentration (IC50) is at most 10 µM under setting [1] and at most 1 µM under setting [2].

Regarding `Nc1ccc(Cl)cc1C(SCC(=O)NCC(c1ccccc1)c1ccccc1)c1ccccc1Cl` (stereo not drawn) [Compound 13i], the concentration for half-maximal inhibition (IC50) under setting [1] is at most 10 µM and the half-maximal inhibitory concentration (IC50) under setting [2] was at most 1 µM.
